Patent US20060160773A1, “Combretastatin derivatives with cytotoxic action” (priority 2003, published 2006)
Where two headings read alike, the source gives them in different places. Marks after values point to notes of the source that are not given here.

How the values were obtained:
[1] = tested on: B16/BL6 murine melanoma line; experiment: Cytotoxicity test (sulforodamine B), B16/BL6; type: cell-based
Procedure: (§1) The cytotoxic effect of our derivatives was evaluated in series of human and murine cell lines.
The B16/BL6 murine melanoma line, obtained from the M. Negri Institute in Milan, was cultured in DMEM containing 10% FBS and antibiotics.
(§2) For the cytotoxicity test the cells were seeded at variable densities according to cell type in 96-well plates in normal culture medium (200 μl/well) and incubated for 24 hours at 37° C. On the next day, the study substances were added at scalar concentrations and the cells were incubated for a further 24 hours at 37° C. in a humidified atmosphere containing 5% CO2. At the end of the incubation period the medium containing the substances was removed and three washings with PBS were performed. At the end of the washings 200 μl/well of fresh medium were added and the plates were incubated at 37° C. for a further 48 hours. At the end of this incubation period the culture medium was removed by overturning the plates and 200 μl/well of PBS and 50 μl of 80% cold trichloroacetic acid (TCA) were added. The plates were then incubated in ice. After 1 h the TCA was removed, the plates were washed three times by immersion in distilled water and dried first on blotting paper and then in the oven. 200 μl of 0.4% sulforodamine B in 1% acetic acid were then added to all wells. The plates were incubated at room temperature for a further 30 minutes. The sulforodamine B was removed by overturning, the plates were washed three times by immersion in 1% acetic acid, and then dried first on blotting paper and then in the oven. 200 μl of Tris base 10 mM were then added to all wells and the plates were placed under stirring for at least 20 min. The optical density was measured by spectrophotometric readout at 540 nm.
(§3) In the same table are reported the IC50 of ST2897, ST2898 and ST2899 on BMEC.

[2] = tested on: HCT 116 human colorectal carcinoma; experiment: Cytotoxicity test (sulforodamine B), HCT 116; type: cell-based
Procedure: as §1
(§4) The following cell lines, purchased from ATCC, were cultured according to the manufacturer's instructions: MeWo human melanoma, NCI-H460 human lung cancer, LoVo human colon adenocarcinoma, PC3 human prostate carcinoma, MES-SA human uterine sarcoma, HCT 116 human colorectal carcinoma, MCF-7 human breast carcinoma.
as §2, §3

[3] = tested on: NCI-H460 human lung cancer; experiment: Cytotoxicity test (sulforodamine B), NCI-H460; type: cell-based
Procedure: as §1, §4, §2, §3

[4] = tested on: HT29 human colon adenocarcinoma line; experiment: Cytotoxicity test (sulforodamine B), HT29; type: cell-based
Procedure: as §1
(§5) The M109 murine lung cancer line, the HT29 human colon adenocarcinoma line, the A2780 human ovarian carcinoma line, obtained from the Milan Tumour Institute, were cultured in RPMI containing 10% FBS and antibiotics.
as §2, §3

[5] = tested on: MES-SA human uterine sarcoma; experiment: Cytotoxicity test (sulforodamine B), MES-SA; type: cell-based; details: read-out: IC50 ± SE
Procedure: as §1, §4, §2, §3

[6] = tested on: Bovine microcirculatory endothelial cells (BMEC); experiment: Cytotoxicity test (sulforodamine B), BMEC; type: cell-based; details: read-out: IC50 ± SE
Procedure: as §1
Bovine microcirculatory endothelial cells (BMEC), isolated from bovine adrenal glands, were maintained in culture in DMEM containing 20% FBS, 50 μg/ml of bovine brain extract (BBE), 50 units/ml of heparin (SIGMA), 100 units/ml of gentami-cin (SIGMA) and 10 mg/ml of L-glutamine (Hyclone). EA-hy926, an immortalised hybridoma of HUVEC and adenocarcinoma cells, obtained from the University of Bari Department of Biomedical Sciences and Human Oncology, was cultured in DMEM added with 10% FBS and gentamicin.
as §2, §3

[7] = tested on: Human umbilical vein endothelial cells (HUVEC); experiment: Cytotoxicity test (sulforodamine B), HUVEC; type: cell-based; details: read-out: IC50 ± SE
Procedure: as §1
Human umbilical vein endothelial cells (HUVEC), from the BioWhittaker company, were maintained in EGM-2 culture medium (BioWhittaker).
as §2, §3

[8] = tested on: human NCI-H460 lung cancer cells; experiment: Anticancer activity in animal model of human lung carcinoma (NCI-H460 s.c. in nude CD1 mice); type: in vivo
Procedure: The anticancer activity of ST2495 and ST2496 was assayed in an animal model of human lung carcinoma.
In this model, human NCI-H460 lung cancer cells at a density of 3×10^6 cells/mouse were injected subcutaneously in the right flank of nude CD1 mice. […]
All the animals were weighed during the course of the treatment to adjust the drug administration volume and to record the percentage loss of body weight (% BWL).
Tumour growth was assessed by measuring the shorter diameter (width) and the longer diameter (length) of each tumour twice a week with a Vernier caliper, and the anticancer activity was evaluated in terms of percentage inhibition of tumour growth. The tumour volume was calculated using the following formula: tumour volume (TV) in mm^3=[length (mm)×width (mm)^2]/2. The percentage inhibition (% TVI) was calculated according to the following equation: 100−[(mean tumour volume of the treated group/mean tumour volume of the control group)×100]. A value of P≦0.05 was regarded as statistically significant.

[9] = tested on: MCF-7 human breast carcinoma; experiment: Cytotoxicity test (sulforodamine B), MCF-7; type: cell-based
Procedure: as §1, §4, §2, §3

[10] = tested on: A2780 human ovarian carcinoma line; experiment: Cytotoxicity test (sulforodamine B), A2780; type: cell-based
Procedure: as §1, §5, §2, §3

MeWo human melanoma = experiment: Cytotoxicity test (sulforodamine B), MeWo; type: cell-based; details: read-out: IC50 ± SE
Procedure: as §1, §4, §2, §3

[11] = Evaluation of cardiovascular parameters (blood pressure, heart rate) in anaesthetised rats; type: in vivo; details: 20 or 40 mg/kg injected in the jugular vein, anaesthetised Wistar rats (FIG. 1)
Procedure: Combretastatin A4, its prodrug ST2494 and our water soluble selected compounds ST2495 and ST2496, diluted at the doses of 20 or 40 mg/kg in saline solution or for combretastatin A4 in 5% DMSO, were injected in the jugular vein of Wistar rats anaesthetised with 55 mg/kg Nembutal. The parameter considered were blood pressure and heart rate.

[12] = 24 h exposure, 48 h recovery, SRB
[13] = i.p. 30 mg/kg twice/day, qd5x/w, day 4 to day 22
[14] = i.p. 30 mg/kg, qd5x/w once a day, day 4 to day 22
[15] = i.v. 60 mg/kg, q2dx6, day 4 to day 16
[16] = i.v. 90 mg/kg, q2dx6, day 4 to day 16
[17] = p.o. 30 mg/kg twice/day, qd5x/w, day 4 to day 22
[18] = p.o. 60 mg/kg twice/day, qd5x/w, day 4 to day 22
[19] = i.v. 60 mg/kg, q2dx6, day 5 to day 17
[20] = i.v. 90 mg/kg, q2dx6, day 5 to day 17
[21] = p.o. 30 mg/kg, qdx5/w, day 4 to day 14

With “Disodium 6[(Z)-2-(3,4,5-trimethoxyphenyl)ethenyl]-1-benzo-thiophen-4-ol-4-O-phospohate [ST2495]” the IC50 ([1]; B16/BL6, 24 h exposure, 48 h recovery, SRB, read-out: IC50 ± SE) was over 10000 nM, the IC50 ([2]; HCT-116, 24 h exposure, 48 h recovery, SRB, read-out: IC50 ± SE) was 3000 ± 102 nM and the IC50 ([3]; NCI-H460, 24 h exposure, 48 h recovery, SRB, read-out: IC50 ± SE) was 620 ± 65 nM. For the same compound, the IC50 ([4]; HT29, 24 h exposure, 48 h recovery, SRB, read-out: IC50 ± SE) was over 10000 nM, the IC50 ([5]; MESSA, 24 h exposure, 48 h recovery, SRB) was 1420 ± 49 nM and the IC50 ([6]; BMEC, 24 h exposure, 48 h recovery, SRB) was 640 ± 40 nM. For the same compound, the IC50 [7, 12] was 83 ± 2.06 nM, the “anticancer activity (summary in words)” value ([8]; NCI-H460 in nude mice, i.p., p.o. and i.v. routes) was “proved active with all the administration routes” and the “% BWL” value [8, 13] was 0%. For the same compound, the Mortality [8, 13] was 0/8, the “% TVI” value ([8]; i.p. 30 mg/kg twice/day, qd5x/w, day 15 after tumor inoculation) was 75** % and the “% TVI” value ([8]; i.p. 30 mg/kg twice/day, qd5x/w, day 22 after tumor inoculation) was 72** %. The “% BWL” value [8, 14] was 4%, the Mortality [8, 14] was 0/8 and the “% TVI” value ([8]; i.p. 30 mg/kg, qd5x/w once a day, day 15 after tumor inoculation) was 32** %. For the same compound, the “% TVI” value ([8]; i.p. 30 mg/kg, qd5x/w once a day, day 22 after tumor inoculation) was 38* %, the “% BWL” value [8, 15] was 1% and the Mortality [8, 15] was 0/8. The “% TVI” value ([8]; i.v. 60 mg/kg, q2dx6 day 4 to 16, day 15 after tumor inoculation) was 84** %, the “% TVI” value ([8]; i.v. 60 mg/kg, q2dx6 day 4 to 16, day 22 after tumor inoculation) was 73** % and the “% BWL” value [8, 16] was 0%. The Mortality [8, 16] was 0/8, the “% TVI” value ([8]; i.v. 90 mg/kg, q2dx6 day 4 to 16, day 15 after tumor inoculation) was 81** % and the “% TVI” value ([8]; i.v. 90 mg/kg, q2dx6 day 4 to 16, day 22 after tumor inoculation) was 62** %. The “% BWL” value [8, 17] was 0%, the Mortality [8, 17] was 0/8 and the “% TVI” value ([8]; p.o. 30 mg/kg twice/day, qd5x/w, day 15 after tumor inoculation) was 42** %. The “% TVI” value ([8]; p.o. 30 mg/kg twice/day, qd5x/w, day 22 after tumor inoculation) was 30* %, the “% BWL” value [8, 18] was 1% and the Mortality [8, 18] was 0/8. The “% TVI” value ([8]; p.o. 60 mg/kg twice/day, qd5x/w, day 15 after tumor inoculation) was 79** %, the “% TVI” value ([8]; p.o. 60 mg/kg twice/day, qd5x/w, day 22 after tumor inoculation) was 67** % and the IC50 ([9]; MCF-7, 24 h exposure, 48 h recovery, SRB, read-out: IC50 ± SE) was 693 ± 21 nM. The IC50 ([10]; A2780, 24 h exposure, 48 h recovery, SRB, read-out: IC50 ± SE) was 500 ± 20 nM and the IC50 (MeWo human melanoma; [12]) was 830 ± 0.13 nM.
With `COc1cc(/C=C\c2cc(OP(=O)(O)O)c3ccoc3c2)cc(OC)c1OC` [ST2496, Disodium 6[(Z)-2-(3,4,5-trimethoxyphenyl)ethenyl]-1-benzo-furan-4-ol 4-O-phosphate] the IC50 ([1]; Mus musculus, B16-BL6, read-out: IC50 ± SE) was 4140 ± 490 nM, the IC50 ([2]; Homo sapiens, HCT-116, read-out: IC50 ± SE) was 1680 ± 70 nM and the blood pressure [11] was “did not show significant effect”. The heart rate [11] was “did not show significant effect”, the IC50 ([3]; Homo sapiens, NCI-H460, read-out: IC50 ± SE) was 780 ± 3.4 nM and the IC50 ([4]; Homo sapiens, HT-29, read-out: IC50 ± SE) was 3900 ± 70 nM. The IC50 ([5]; Homo sapiens, MES-SA) was 500 ± 50 nM, the IC50 ([6]; Bos taurus, Endothelial cell) was 340 ± 16 nM and the IC50 ([7]; Homo sapiens) was 85 ± 1.2 nM. For the same compound, the “% BWL” value [8, 19] was 1%, the Mortality [8, 19] was 0/8 and the “% TVI” value ([8]; i.v. 60 mg/kg, q2dx6 day 5 to 17, day 14 after tumor inoculation) was 48** %. For the same compound, the “% TVI” value ([8]; i.v. 60 mg/kg, q2dx6 day 5 to 17, day 21 after tumor inoculation) was 53** %, the “% BWL” value [8, 20] was 1% and the Mortality [8, 20] was 0/8. The “% TVI” value ([8]; i.v. 90 mg/kg, q2dx6 day 5 to 17, day 14 after tumor inoculation) was 57*** %, the “% TVI” value ([8]; i.v. 90 mg/kg, q2dx6 day 5 to 17, day 21 after tumor inoculation) was 56** % and the “% TVI” value ([8]; p.o. 30 mg/kg, qdx5/w day 4 to 14, day 14 after tumor inoculation) was 48* %. The “% TVI” value ([8]; p.o. 30 mg/kg, qdx5/w day 4 to 14, day 21 after tumor inoculation) was 46* %, the “% BWL” value [8, 21] was 1% and the Mortality [8, 21] was 0/8. It also gave an IC50 ([9]; Homo sapiens, MCF7, read-out: IC50 ± SE) of 646 ± 29 nM, an IC50 ([10]; Homo sapiens, A2780, read-out: IC50 ± SE) of 260 ± 6 nM and an IC50 (MeWo human melanoma; Homo sapiens) of 820 ± 7.7 nM.
